16 compounds from PubChem BioAssay (NCI) can be followed below.

Some test systems named below: NCI-H460 lung; SF-539 CNS; COLO 205 colon; M14 melanoma; 786-0 renal; SW-620 colon; HCC-2998 colon; NCI/ADR-RES ovarian; A498 renal; LOX IMVI melanoma.
What all share (test): growth of human tumour cells (NCI), 48 h

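Dose response: 5 concentrations. Exposure: 48 h. Format: 96-well plates. Endpoint: linear interpolation; highest concentration if not reached. Here, GI50 denotes the concentration required for 50% inhibition of growth. TGI: concentration producing complete growth inhibition.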 Bounds are passed on as bounds.

Turning to `O=C1OC(=O)c2c1cc1cc3c(cc1c2-c1ccc2c(c1)OCO2)OCO3`, the TGI was more than 100 µM in the assay with NCI-H460 lung; more than 100 µM with SF-539 CNS; more than 100 µM with COLO 205 colon; more than 100 µM in the assay on M14 melanoma; 48.1 µM with 786-0 renal; more than 100 µM in the assay with SW-620 colon. The TGI with HCC-2998 colon, in the assay on NCI/ADR-RES ovarian and with A498 renal was more than 100 µM in each case.

Consider `CN(C)Cc1c[nH]c2nc[nH]c(=O)c12`, for which the TGI with NCI-H460 lung is 61 µM; in the assay on SF-539 CNS, 48.9 µM; with COLO 205 colon, more than 100 µM; in the assay with M14 melanoma, more than 100 µM; in the assay on 786-0 renal, 76.4 µM; with SW-620 colon, more than 100 µM. Moreover, the TGI in the assay on LOX IMVI melanoma was 40.9 µM; in the assay on NCI/ADR-RES ovarian, more than 100 µM; with A498 renal, more than 100 µM.

In the case of `O=C1C=CC(=O)N1c1ccc2ccccc2c1`, the GI50 in the assay with NCI-H460 lung was 17.5 µM; in the assay with SF-539 CNS, 17.7 µM; with COLO 205 colon, 2.01 µM; with M14 melanoma, 14.5 µM; in the assay on 786-0 renal, 17.2 µM; with SW-620 colon, 1.79 µM. Also, the GI50 was 17.8 µM with HCC-2998 colon, 16.4 µM with LOX IMVI melanoma, 21.5 µM with NCI/ADR-RES ovarian and 12.7 µM with A498 renal. The TGI is 37.9 µM in the assay on NCI-H460 lung; 33.9 µM with SF-539 CNS; 4.22 µM in the assay with COLO 205 colon; 28.4 µM with M14 melanoma; 31.6 µM in the assay with 786-0 renal; 3.62 µM in the assay on SW-620 colon. Also, the TGI with HCC-2998 colon was 32.8 µM; in the assay with LOX IMVI melanoma, 31.3 µM; in the assay on NCI/ADR-RES ovarian, 55.7 µM; with A498 renal, 27.3 µM.

For `COc1cc(/C=C2\CC3C4CC=C5C[C@@H](N6CCCC6)CC[C@]5(C)C4CC[C@]3(C)[C@H]2OC(C)=O)ccc1OCCCn1ccnc1` (some centres undefined), the GI50 is 0.531 µM with NCI-H460 lung; 0.196 µM in the assay on SF-539 CNS; 0.104 µM in the assay with COLO 205 colon; 0.304 µM in the assay on M14 melanoma; 0.369 µM in the assay with 786-0 renal; 0.232 µM with SW-620 colon. For the same compound, the GI50 in the assay on HCC-2998 colon was 0.178 µM; in the assay with NCI/ADR-RES ovarian it was 5.35 µM; in the assay with A498 renal it was 2.66 µM. In addition, the TGI is more than 19.2 µM with NCI-H460 lung; 0.459 µM in the assay with SF-539 CNS; more than 50 µM in the assay on COLO 205 colon; 0.752 µM in the assay on M14 melanoma; 1.38 µM in the assay on 786-0 renal; 1.21 µM with SW-620 colon. Moreover, the TGI is 0.568 µM with HCC-2998 colon, 13.5 µM with NCI/ADR-RES ovarian and 5.18 µM in the assay with A498 renal.

Regarding `O=c1oc2cc(O)ccc2cc1-c1nc2ccccc2o1`, the TGI is more than 100 µM with NCI-H460 lung; more than 100 µM in the assay on SF-539 CNS; 80.3 µM with COLO 205 colon; more than 100 µM in the assay on M14 melanoma; more than 100 µM in the assay on 786-0 renal; more than 100 µM in the assay with SW-620 colon. Further, the TGI was more than 100 µM in the assay with HCC-2998 colon, more than 100 µM in the assay with LOX IMVI melanoma, more than 100 µM in the assay with NCI/ADR-RES ovarian and 84.7 µM with A498 renal.

`CC(C)(C)c1ccc(OCCCCCCCN2CCNCC2)cc1`: the GI50 in the assay with NCI-H460 lung was 1.83 µM; with COLO 205 colon, 1.49 µM; with M14 melanoma it was 1.55 µM; in the assay on 786-0 renal, 1.63 µM; with SW-620 colon, 1.67 µM; in the assay with HCC-2998 colon it was 1.7 µM. Moreover, the figures for the GI50 in the assay with LOX IMVI melanoma and in the assay with NCI/ADR-RES ovarian were 1.52 µM and 2.46 µM, respectively. The TGI with NCI-H460 lung was determined as 3.47 µM; in the assay with COLO 205 colon, 3.24 µM; with M14 melanoma, 3.02 µM; in the assay on 786-0 renal, 3.07 µM; with SW-620 colon, 3.26 µM; in the assay on HCC-2998 colon, 3.22 µM. In addition, the TGI in the assay on LOX IMVI melanoma turned out to be 3.06 µM; in the assay on NCI/ADR-RES ovarian, 6.94 µM.

With `CC(=O)OC1CCC2(C)C(=CCC3C2CCC2(C)C3CC3OC4(CCC(C)CN4)C(C)C32)C1` (centres undefined), the TGI in the assay with NCI-H460 lung, in the assay with SF-539 CNS, in the assay with COLO 205 colon, with M14 melanoma, in the assay with 786-0 renal and with SW-620 colon was more than 100 µM in each case. In addition, the TGI in the assay with LOX IMVI melanoma, in the assay with NCI/ADR-RES ovarian and with A498 renal was more than 100 µM each time.

Consider `Cc1nc2ccccc2c(/C=C/c2ccc(C(F)(F)F)cc2)c1C(=O)/C=C/c1ccccc1`, for which the GI50 in the assay on NCI-H460 lung was 1.13 µM; in the assay on SF-539 CNS it was 1.72 µM; in the assay with COLO 205 colon, 1.55 µM; with 786-0 renal, 1.58 µM; with HCC-2998 colon it was 1.57 µM; in the assay with LOX IMVI melanoma, 1.58 µM. Further, the GI50 in the assay on NCI/ADR-RES ovarian was 1.97 µM; with A498 renal it was 1.69 µM. Moreover, the TGI in the assay on NCI-H460 lung was found to be 2.57 µM; in the assay on SF-539 CNS it was 3.13 µM; in the assay with COLO 205 colon it was 3.82 µM; in the assay on 786-0 renal, 3.07 µM; in the assay on HCC-2998 colon, 3.29 µM; in the assay on LOX IMVI melanoma it was 2.94 µM. For the same compound, the results for the TGI in the assay with NCI/ADR-RES ovarian and in the assay on A498 renal were 4.76 µM and 3.13 µM, respectively.

Consider `CCOC(=O)c1c(C)n(Cc2ccc(Cl)cc2Cl)c2c1cc(O)c1[nH]c(Cc3ccccc3)nc12`, for which the GI50 in the assay on NCI-H460 lung is 2.71 µM; in the assay on SF-539 CNS, 7.62 µM; in the assay with COLO 205 colon, 5.04 µM; with M14 melanoma, 11 µM; in the assay on 786-0 renal it was 3.67 µM; in the assay on SW-620 colon, 2.21 µM. The GI50 with HCC-2998 colon is 2.41 µM; with LOX IMVI melanoma it was 1.89 µM; with NCI/ADR-RES ovarian, 4.79 µM. The TGI in the assay on NCI-H460 lung is 6.65 µM; in the assay with SF-539 CNS it was 19.9 µM; in the assay with COLO 205 colon it was 30.1 µM; in the assay on M14 melanoma, 37.5 µM; in the assay with 786-0 renal, 13.7 µM; in the assay with SW-620 colon, 6.02 µM. Further, the TGI with HCC-2998 colon came to 5.23 µM; in the assay on LOX IMVI melanoma, 3.66 µM; in the assay with NCI/ADR-RES ovarian, 17.3 µM.

For the compound `C=CCC(NCc1ccccc1)c1cn(C(=O)OCC)c2ccccc12` (centres undefined), the GI50 is more than 100 µM in the assay with NCI-H460 lung; 5.47 µM with SF-539 CNS; 28 µM in the assay on COLO 205 colon; 18.6 µM with M14 melanoma; 18.7 µM with 786-0 renal; 18.3 µM in the assay with SW-620 colon. Besides, the GI50 was 14 µM with HCC-2998 colon, 17 µM in the assay with LOX IMVI melanoma and 21.4 µM in the assay on NCI/ADR-RES ovarian. For the same compound, the TGI was more than 100 µM with NCI-H460 lung; 18.8 µM in the assay with SF-539 CNS; more than 100 µM in the assay with COLO 205 colon; 39.2 µM in the assay with M14 melanoma; 38.8 µM in the assay on 786-0 renal; 41.7 µM in the assay with SW-620 colon. The TGI in the assay with HCC-2998 colon was 28.3 µM; with LOX IMVI melanoma, 30.9 µM; with NCI/ADR-RES ovarian, 52.1 µM.

Regarding `Cc1ccc(S(=O)(=O)NC(=O)Nc2ncn[nH]2)cc1`, the TGI in the assay with NCI-H460 lung, in the assay on SF-539 CNS, with COLO 205 colon, in the assay on M14 melanoma, in the assay with 786-0 renal and with SW-620 colon was more than 100 µM in each case. In addition, the TGI in the assay with HCC-2998 colon, with NCI/ADR-RES ovarian and with A498 renal was more than 100 µM each time.

For the compound `CN(COC(=O)C(C)(C)C)c1nc(N(C)COC(=O)C(C)(C)C)nc(N(C)COC(=O)C(C)(C)C)n1`, the TGI in the assay on NCI-H460 lung is more than 100 µM; in the assay with SF-539 CNS, more than 100 µM; with COLO 205 colon, 35.5 µM; with M14 melanoma, 47.6 µM; with 786-0 renal, more than 100 µM; with SW-620 colon it was 82.2 µM. In addition, the TGI with HCC-2998 colon, with NCI/ADR-RES ovarian and with A498 renal was more than 100 µM each time.

On to `Cc1nc2ccccc2c(/C=C/c2ccc(F)cc2)c1C(=O)/C=C/c1ccccc1`, for which the GI50 in the assay on NCI-H460 lung was 1.79 µM; in the assay on SF-539 CNS, 1.81 µM; in the assay on M14 melanoma, 2.87 µM; with 786-0 renal, 2.03 µM; in the assay with SW-620 colon, 2.9 µM; with HCC-2998 colon, 1.76 µM. The GI50 in the assay on LOX IMVI melanoma is 1.69 µM; in the assay with NCI/ADR-RES ovarian it was 2.61 µM; in the assay on A498 renal, 2.22 µM. The TGI with NCI-H460 lung was 3.71 µM; in the assay with SF-539 CNS it was 3.57 µM; in the assay with M14 melanoma, 9.26 µM; with 786-0 renal, 4.36 µM; in the assay on SW-620 colon, more than 100 µM; in the assay on HCC-2998 colon it was 3.32 µM. Moreover, the values for the TGI with LOX IMVI melanoma, in the assay on NCI/ADR-RES ovarian and in the assay on A498 renal were 3.11 µM, 7.48 µM and 4.62 µM, respectively.

Regarding `C[C@H]1CCC/C=C/[C@@H]2C[C@H](O)C[C@H]2[C@H](O)C(O)C(O)C(=O)O1` (some centres undefined), the GI50 was 2.65 µM with NCI-H460 lung; 0.677 µM in the assay with SF-539 CNS; 4.07 µM in the assay with COLO 205 colon; 3.61 µM in the assay with M14 melanoma; 0.788 µM in the assay on 786-0 renal; 3.26 µM in the assay on SW-620 colon. Besides, the GI50 in the assay on HCC-2998 colon is 2.15 µM; with NCI/ADR-RES ovarian, 1.62 µM; in the assay with A498 renal, 2.29 µM. Further, the TGI with NCI-H460 lung, in the assay on SF-539 CNS, in the assay with COLO 205 colon, in the assay on M14 melanoma, in the assay with 786-0 renal and in the assay on SW-620 colon was more than 100 µM each time. In addition, the TGI was more than 22.4 µM with HCC-2998 colon and 7.96 µM in the assay with A498 renal.

Consider `CN(C)Cc1nsc(N(C)C)n1`, for which the TGI in the assay with NCI-H460 lung, in the assay with SF-539 CNS, in the assay on COLO 205 colon, in the assay with M14 melanoma, in the assay on 786-0 renal and with SW-620 colon was more than 100 µM in each case. In addition, the TGI in the assay on LOX IMVI melanoma, in the assay with NCI/ADR-RES ovarian and in the assay with A498 renal was more than 100 µM each time.

Consider `O=C(O)CC(CC(=O)O)n1cccc1`, for which the TGI in the assay on NCI-H460 lung, in the assay on SF-539 CNS, in the assay on COLO 205 colon, in the assay on M14 melanoma, with 786-0 renal and in the assay on SW-620 colon was more than 100 µM in each case. In addition, the TGI in the assay on LOX IMVI melanoma, in the assay on NCI/ADR-RES ovarian and in the assay on A498 renal was more than 100 µM each time.
